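Following 48 hours of exposure in 96-well plates, responses at five concentrations were used to interpolate endpoints linearly. Definition used: TGI = concentration required for complete inhibition of growth.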
Key:
Test in all cases: NCI-60 cell line screen, 48 h
[1] = tested on: NCI-H23 lung
[2] = tested on: COLO 205 colon
[3] = tested on: NCI-H226 lung
[4] = tested on: SF-295 CNS
[5] = tested on: SF-539 CNS
[6] = tested on: 786-0 renal
[7] = tested on: TK-10 renal
[8] = tested on: SN12C renal
[9] = tested on: SK-MEL-5 melanoma
[10] = tested on: OVCAR-3 ovarian
[11] = tested on: HOP-62 NSCLC
[12] = tested on: U251 CNS
[13] = tested on: M14 melanoma
[14] = tested on: EKVX NSCLC
[15] = tested on: MOLT-4 leukemia
[16] = tested on: DU-145 prostate
[17] = tested on: OVCAR-8 ovarian
[18] = tested on: SF-268 CNS
[19] = tested on: SK-OV-3 ovarian
[20] = tested on: SK-MEL-28 melanoma
[21] = tested on: MDA-N
[22] = tested on: BT-549 breast
[23] = tested on: HOP-92 NSCLC
[24] = tested on: MCF7 breast
[25] = tested on: HCT-116 colon
[26] = tested on: SNB-75 CNS
[27] = tested on: SNB-19 CNS
[28] = tested on: OVCAR-4 ovarian
[29] = tested on: HL-60(TB) leukemia
[30] = tested on: SW-620 colon
[31] = tested on: UO-31 renal
[32] = tested on: A498 renal
[33] = tested on: NCI-H460 lung
[34] = tested on: LOX IMVI melanoma
[35] = tested on: OVCAR-5 ovarian
[36] = tested on: CAKI-1 renal
[37] = tested on: A549 NSCLC
[38] = tested on: NCI/ADR-RES ovarian
[39] = tested on: UACC-62 melanoma
[40] = tested on: HCT-15 colon
[41] = tested on: T-47D breast
[42] = tested on: UACC-257 melanoma
[43] = tested on: HT29 colon
[44] = tested on: PC-3 prostate
[45] = tested on: K-562 leukemia
[46] = tested on: MDA-MB-231 breast
[47] = tested on: ACHN renal
[48] = tested on: SK-MEL-2 melanoma
[49] = tested on: IGROV1 ovarian
[50] = tested on: KM12 colon
[51] = tested on: RXF 393 renal
[52] = tested on: RPMI-8226 leukemia
[53] = tested on: MDA-MB-435
[54] = tested on: CCRF-CEM leukemia
[55] = tested on: HCC-2998 colon
[56] = tested on: MALME-3M melanoma
[57] = tested on: HS 578T breast
[58] = tested on: SR leukemia
[59] = tested on: NCI-H522 lung

Question: With `N#Cc1c(Cl)cccc1Oc1ccc(S(=O)(=O)/N=C(\NN)Nc2ccc(Cl)cc2)cc1` as the molecule, how does the TGI [1] read?
Answer: 65.6 µM

Question: And the TGI [2]?
Answer: 29.6 µM

Question: What about the TGI [3] of the same molecule?
Answer: 60.9 µM

Question: What about the TGI [4] of the same molecule?
Answer: 70.3 µM

Question: What about the TGI [5] of the same molecule?
Answer: 36.6 µM

Question: What about the TGI [6] of the same molecule?
Answer: 61.1 µM

Question: What about the TGI [7] of the same molecule?
Answer: 79.6 µM

Question: And the TGI [8]?
Answer: 64 µM

Question: And the TGI [9]?
Answer: 31.3 µM

Question: What about the TGI [10] of the same molecule?
Answer: 40.2 µM

Question: And the TGI [11]?
Answer: 59.6 µM

Question: What about the TGI [12] of the same molecule?
Answer: > 100 µM

Question: What about the TGI [13] of the same molecule?
Answer: 52.1 µM

Question: What about the TGI [14] of the same molecule?
Answer: 68.3 µM

Question: And the TGI [15]?
Answer: 34.4 µM

Question: What about the TGI [16] of the same molecule?
Answer: 86.9 µM

Question: What about the TGI [17] of the same molecule?
Answer: > 100 µM

Question: What about the TGI [18] of the same molecule?
Answer: 48.9 µM

Question: What about the TGI [19] of the same molecule?
Answer: > 100 µM

Question: What about the TGI [20] of the same molecule?
Answer: > 100 µM

Question: And the TGI [21]?
Answer: 66.4 µM

Question: And the TGI [22]?
Answer: 67.8 µM

Question: And the TGI [23]?
Answer: 54 µM

Question: What about the TGI [24] of the same molecule?
Answer: > 100 µM

Question: And the TGI [25]?
Answer: 37.8 µM

Question: And the TGI [26]?
Answer: 54.7 µM

Question: What about the TGI [27] of the same molecule?
Answer: > 100 µM

Question: What about the TGI [28] of the same molecule?
Answer: 71 µM

Question: And the TGI [29]?
Answer: 47.7 µM

Question: What about the TGI [30] of the same molecule?
Answer: > 100 µM

Question: What about the TGI [31] of the same molecule?
Answer: 91.5 µM

Question: What about the TGI [32] of the same molecule?
Answer: > 100 µM

Question: And the TGI [33]?
Answer: 43.7 µM

Question: What about the TGI [34] of the same molecule?
Answer: 31.4 µM

Question: What about the TGI [35] of the same molecule?
Answer: 94.5 µM

Question: What about the TGI [36] of the same molecule?
Answer: > 100 µM

Question: What about the TGI [37] of the same molecule?
Answer: > 100 µM

Question: And the TGI [38]?
Answer: > 100 µM

Question: What about the TGI [39] of the same molecule?
Answer: 38.8 µM

Question: What about the TGI [40] of the same molecule?
Answer: > 100 µM

Question: What about the TGI [41] of the same molecule?
Answer: 48.1 µM

Question: And the TGI [42]?
Answer: 72.3 µM

Question: And the TGI [43]?
Answer: 96.2 µM

Question: And the TGI [44]?
Answer: 80.8 µM

Question: What about the TGI [45] of the same molecule?
Answer: > 100 µM

Question: What about the TGI [46] of the same molecule?
Answer: 67.2 µM

Question: And the TGI [47]?
Answer: > 100 µM

Question: And the TGI [48]?
Answer: 46.5 µM

Question: And the TGI [49]?
Answer: 43.4 µM

Question: What about the TGI [50] of the same molecule?
Answer: 42.7 µM

Question: And the TGI [51]?
Answer: 47.1 µM

Question: What about the TGI [52] of the same molecule?
Answer: 59.3 µM

Question: How did the TGI [1] turn out when `O=C1C=C(Sc2ccccc2)c2nccc3c2c1nc1ccccc13` was run?
Answer: 73.2 µM

Question: What about the TGI [2] of the same molecule?
Answer: 31.5 µM

Question: And the TGI [3]?
Answer: > 100 µM

Question: What about the TGI [4] of the same molecule?
Answer: > 100 µM

Question: And the TGI [5]?
Answer: 31.1 µM

Question: And the TGI [6]?
Answer: 49.6 µM

Question: And the TGI [7]?
Answer: > 100 µM

Question: And the TGI [8]?
Answer: 32.2 µM

Question: And the TGI [10]?
Answer: 19.7 µM

Question: And the TGI [11]?
Answer: 32.2 µM

Question: What about the TGI [53] of the same molecule?
Answer: 31.2 µM

Question: And the TGI [12]?
Answer: 33.6 µM

Question: And the TGI [13]?
Answer: 31.7 µM

Question: And the TGI [14]?
Answer: 41 µM

Question: What about the TGI [15] of the same molecule?
Answer: 23.5 µM

Question: And the TGI [16]?
Answer: > 100 µM

Question: What about the TGI [17] of the same molecule?
Answer: 37.6 µM

Question: And the TGI [18]?
Answer: 26.7 µM

Question: What about the TGI [19] of the same molecule?
Answer: > 100 µM

Question: And the TGI [20]?
Answer: 38.8 µM

Question: What about the TGI [21] of the same molecule?
Answer: 33.3 µM

Question: What about the TGI [22] of the same molecule?
Answer: 31.4 µM

Question: What about the TGI [23] of the same molecule?
Answer: 42.3 µM

Question: What about the TGI [24] of the same molecule?
Answer: 28.7 µM

Question: And the TGI [25]?
Answer: 30.3 µM

Question: What about the TGI [26] of the same molecule?
Answer: > 100 µM

Question: And the TGI [27]?
Answer: > 100 µM

Question: What about the TGI [28] of the same molecule?
Answer: 31.4 µM

Question: What about the TGI [29] of the same molecule?
Answer: 4.29 µM

Question: And the TGI [30]?
Answer: 29.7 µM

Question: What about the TGI [31] of the same molecule?
Answer: 27.3 µM

Question: And the TGI [33]?
Answer: 84.5 µM

Question: And the TGI [34]?
Answer: 28.6 µM

Question: What about the TGI [35] of the same molecule?
Answer: > 100 µM

Question: What about the TGI [36] of the same molecule?
Answer: > 100 µM

Question: And the TGI [37]?
Answer: > 100 µM

Question: What about the TGI [38] of the same molecule?
Answer: > 100 µM

Question: And the TGI [54]?
Answer: 12.3 µM

Question: What about the TGI [55] of the same molecule?
Answer: 37.8 µM

Question: And the TGI [39]?
Answer: 29.2 µM

Question: What about the TGI [40] of the same molecule?
Answer: 26 µM

Question: What about the TGI [42] of the same molecule?
Answer: 30.6 µM

Question: What about the TGI [43] of the same molecule?
Answer: 26.8 µM

Question: What about the TGI [44] of the same molecule?
Answer: 26.2 µM

Question: What about the TGI [46] of the same molecule?
Answer: 38 µM

Question: And the TGI [47]?
Answer: 54.8 µM

Question: And the TGI [48]?
Answer: 27.3 µM

Question: And the TGI [49]?
Answer: 23.9 µM

Question: What about the TGI [50] of the same molecule?
Answer: 51.6 µM

Question: What about the TGI [56] of the same molecule?
Answer: 30 µM

Question: And the TGI [57]?
Answer: 46.5 µM

Question: What about the TGI [52] of the same molecule?
Answer: > 100 µM

Question: What about the TGI [58] of the same molecule?
Answer: 25.5 µM

Question: What about the TGI [59] of the same molecule?
Answer: 15.8 µM
